Source: patent US20210205329A1 (The University of North Carolina at Chapel Hill, priority 2018, published 2021)
“And” between values parts separate entries of the source, which are not always exact repeats. Equal entries are not always repeated.

Experiments:
[1] = test system: TLR3 signal; assay: Poly(I:C)-activated TLR3 signaling in RAW264.7 cells; format: cell-based, mouse; details: 1 μM; Poly-IC 25 μg/ml; 24 hrs
[2] = test system: CX3CL1; assay: CX3CL1 (fracktalkine) ELISA in P rat NAc; format: in vivo; details: 15 mg/kg IP, 45 min
Description: Rats were administered VEH or 3α,5α-THP (15 mg/kg, IP) and sacrificed after 45 min. CX3CL1 was measured by ELISA (Raybiotech—ERC-CX3CL1-CL; Norcross, Ga., USA) as per manufacturer's instructions. (Two-way ANOVA: F (1,28)=13.63, P<0.001, Tukey's multiple comparisons test *P<0.05).
(§1) ELISA. Brain tissue micropunches were lysed with Cellyte MT and the extracts were assayed for protein content by the BCA procedure (Pierce) and for MCP-1 using the rat MCP-1 ELISA kit (Raybiotech—ERC-MCP-1-CL; Norcross, Ga., USA) or for fracktalkine using the rat fractalkine ELISA kit (Raybiotech—ERC-CX3CL1-CL; Norcross, Ga., USA) as per manufacturer's instructions.
Activation of TLR4 signaling can result in the production of both pro-inflammatory and anti-inflammatory cytokines in P rat brain, but the factors that determine the outcome of TLR4 activation are unknown. […] 3α,5α-THP administration to naïve female and male P rats enhanced the expression of CX3CL1 by 90% in female rat NAc and 34% in male rat NAc. No sex difference in the effect of 3α,5α-THP was observed.

[3] = test system: MCP-1; assay: MCP-1 ELISA in VTA, amygdala and hypothalamus of female and male P rats; format: in vivo, rat; details: 15 mg/kg IP
Description: (Two-way ANOVA: F (1,28)=20.92, P<0.0001), and Hypothalamus [female (27%) and male (32%)] (Two-way ANOVA: F (1,28)=31.55, P<0.0001).
as §1
To determine if the effects of 3α,5α-THP on MCP-1 were selective for P rat NAc, the effects of 3α,5α-THP administration in VTA, Amygdala and Hypothalamus of both female and male P rats was examined.

[4] = test system: TLR7 signal in P rat NAc; assay: TLR7 signal in P rat NAc after systemic 3α,5α-THP (immunoblot); format: in vivo; details: 15 mg/kg I.P.
Description: Neuropsychopharmacology 40(8): 1549-1559; Aurelian L, et al. (2016). Transl Psychiatry 6: e815). Systemic administration of 3α,5α-THP (15 mg/kg, I.P.) to naïve female P rats inhibited the expression of TLR7 (40%), pIRF7 (40%), and TRAF6 (40%) in P rat NAc, with no effect on IRF3. Similar results were obtained in a separate study of the male P rats.
Next, potential sex differences were directly examined in baseline or 3α,5α-THP inhibition of MCP-1 and pIRF7 expression in female vs. male P rat NAc (FIG. 9). […] Systemic administration of 3α,5α-THP (15 mg/kg, I.P.) to naïve female and male P rats inhibited the expression of MCP-1 (40% in female rat NAc; 25% in male rat NAc). Likewise, 3α,5α-THP administration to naïve female and male P rats inhibited the expression of pIRF7 to the same extent, (55% in female rat NAc; 55% in male rat NAc).

CC(=O)[C@H]1CC[C@H]2[C@@H]3CC[C@H]4C[C@H](O)CC[C@]4(C)[C@H]3CC[C@]12C [3α,5α-THP, (3α,5α)3-hydroxypregnan-20-one]
effect of Poly(I:C) on IP-10 (CXCL10) expression [1]: not altered
enhancement of CX3CL1 expression in NAc ([2]; naïve female P rats): 90%
enhancement of CX3CL1 expression in NAc ([2]; naïve male P rats): 34%
reduction of MCP-1 levels in Amygdala ([3]; female P rats): 47%
reduction of MCP-1 levels in Hypothalamus ([3]; female P rats): 27%
reduction of MCP-1 levels in VTA ([3]; female P rats): 27%
reduction of MCP-1 levels in Amygdala ([3]; male P rats): 58%
reduction of MCP-1 levels in Hypothalamus ([3]; male P rats): 32%
reduction of MCP-1 levels in VTA ([3]; male P rats): 21%
inhibition of TRAF6 ([4]; male P rats): 45%
effect on IRF3 in NAc ([4]; naïve female P rats): no effect
inhibition of TLR7 expression in NAc ([4]; naïve female P rats): 40%
inhibition of TRAF6 expression in NAc ([4]; naïve female P rats): 40%
inhibition of pIRF7 expression in NAc ([4]; naïve female P rats): 40% and 55%
inhibition of pIRF7 expression in NAc ([4]; naïve male P rats): 55%
